# Results from patent US12577273B2, “Small molecule modulators of gut bacterial bile acid metabolism” (priority 2019, dated 2026).
# “And” between values parts separate entries of the source, which are not always exact repeats. Equal values may be shown once. “Also recorded” adds a separate entry of the source.
# Columns and labels:
# B. longum BSH = molecular target: T1, B. longum BSH (Bifidobacterium longum, UniProt Q9KK62); experiment: Inhibitor screen using rBSH, B. longum BSH (UPLC-MS % deconjugation); type: biochemical, Bifidobacterium longum SBT2928; design: His6 (C); made in house; host or cells: Escherichia coli (as for the B. theta enzyme); settings: 100 μM inhibitor; 2 h, 5 h and 21 h timepoints
# T1 sequence (Q9KK62 1-317): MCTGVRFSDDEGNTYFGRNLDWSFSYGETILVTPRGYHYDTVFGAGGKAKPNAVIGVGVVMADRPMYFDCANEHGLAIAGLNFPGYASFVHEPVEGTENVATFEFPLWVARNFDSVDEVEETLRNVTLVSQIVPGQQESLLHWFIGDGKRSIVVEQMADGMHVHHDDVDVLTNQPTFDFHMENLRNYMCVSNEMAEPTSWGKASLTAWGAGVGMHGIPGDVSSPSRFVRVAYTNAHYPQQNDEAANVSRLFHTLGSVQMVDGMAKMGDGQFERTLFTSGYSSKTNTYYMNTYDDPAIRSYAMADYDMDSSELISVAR
# Method: B. longum rBSH. Recombinant BSH from B. longum SBT2928 was expressed and purified as above, except 0.25 mM IPTG was used for protein expression and 1 mM TCEP for protein purification.
# Inhibitor Screen Using rBSHs.
# B. theta BSH KO strain = experiment: Incubation with BSH-deleted B. theta strain; settings: 100 μM inhibitor
# B. theta BSH [1] = molecular target: T2, B. theta BSH (Bacteroides thetaiotaomicron, UniProt Q8A600); experiment: Mass spectrometry analysis for identifying labeled residue on BSH; type: binding
# Method: Mass Spectrometry Analysis for Identifying Labeled Residue on BSH. BSH protein was incubated with DMSO or a 10-fold molar excess of inhibitor 7 for 2 h at room temperature. Reactions were then analyzed by LC-MS using a Shimadzu LC and autosampler system (Shimadzu, Marlborough, MA) interfaced to an LTQ ion trap mass spectrometer (ThermoFisher Scientific, San Jose, CA).
# To determine the site of modification, compound 7 modified protein was analyzed as described above, except that the LC system was interfaced to an Orbitrap Lumos Mass Spectrometer (ThermoFisher Scientific). […] Ion assignments were performed using mzStudio software.^50
# B. adolescentis = experiment: Inhibitor screen in bacteria, B. adolescentis culture; type: cell-based, Bifidobacterium adolescentis L2-32; settings: FIG. 2c, 100 μM inhibitor, 100 μM bile acid pool, 21 h, replicates 1-3
# [2] = tested on: BSH activity in conventional mouse feces; experiment: Screen of inhibitors in conventional mouse feces; type: biochemical; settings: 20 μM inhibitor, 30 min, then GCDCA-d4 100 μM, 18 hours
# Method: Screen of Inhibitors in Conventional Mouse Feces. […] The tubes were then frozen in dry ice for 5 mins and upon thawing were diluted with an equal volume of methanol. […] The supernatant was removed into a clean eppendorf tube and centrifuged again. […] The concentration of product detected from these assays was reported directly.
# [3] = tested on: three Gram negative and three Gram positive strains of human gut bacteria; experiment: Growth (OD600) and cell viability (CFU/mL) of the six gut bacterial strains; settings: 100 μM inhibitor
# B. theta BSH [4] = molecular target: T2, B. theta BSH; experiment: Inhibitor screen using rBSH, B. theta BSH (UPLC-MS % deconjugation)
# [5] = tested on: differentiated Caco-2 cells
# B. vulgatus = experiment: Inhibitor screen in bacteria, B. vulgatus culture; type: cell-based, Bacteroides vulgatus ATCC 8482; settings: FIG. 2c, 100 μM inhibitor, 100 μM bile acid pool, 21 h, replicates 1-3
# Method: Bacterial Culturing. All bacterial strains were cultured at 37° C. in Cullen-Haiser Gut (CHG) media (which consists of brain heart infusion media (Bacto™ BHI, BD) supplemented with 1% BBL vitamin K1-hemin solution (BD), 1% trace minerals solution (ATCC), 1% trace vitamins solution (ATCC), 5% fetal bovine serum (Hyclone), 1 g/L cellubiose, 1 g/L maltose, and 1 g/L fructose) or BHI^+ (Bacto™ BHI, BD, supplemented with 5 mg/L hemin, and 2.5 uL/L Vitamin K1). All strains were grown under anaerobic conditions in a anaerobic chamber (Coy Lab Products Airlock) with a gas mix of 5% hydrogen and 20% carbon dioxide nitrogen. Escherichia coli was grown aerobically at 37° C. in LB medium supplemented with ampicillin to select for the pET21b plasmid.
# Inhibitor Screen in Bacteria. Bacterial cultures were diluted to OD600 of 0.1 in 4 mL BHI^+, containing 100 μM taurine conjugated bile acid pool 100 μM inhibitors. […] After 21 h, serial dilutions were plated on BHI^+ agar to determine cell viability (CFU/mL). […] The cultures were spun down in a centrifuge at 2,500 g for 5 mins to obtain better separation. The organic layer was then removed and the aqueous layer was extracted again using 2 mL of ethyl acetate.
# L. plantarum = experiment: Inhibitor screen in bacteria, L. plantarum culture; type: cell-based, Lactobacillus plantarum WCFS1; settings: FIG. 2c, L. plantarum culture; 100 μM inhibitor, 100 μM bile acid pool, 21 h; replicates 1-3
# [6] = Supplementary FIG. 3a, 5 hours, 100 μM inhibitor, 200 nM rBSH, bile acid pool, replicates 1-3
structure (smiles),measurement,setting,value
C[C@H](CCC(=O)CF)[C@H]1CC[C@H]2[C@@H]3[C@H](O)C[C@@H]4C[C@H](O)CC[C@]4(C)[C@H]3CC[C@]12C [Compound 7],inhibition of B. longum BSH (in words),B. longum BSH,most potent inhibitor; also recorded: most active inhibitor
same,bactericidal effect on BSH-deleted B. theta (CFUs after 24 h),B. theta BSH KO strain,not found to be bactericidal
same,effect on bile acid pools with B. theta BSH KO strain,"B. theta BSH KO strain; 100 μM taurine conjugated pool, 24 h",did not alter bile acid pools
same,modified residue of B. theta BSH (top-down MS),B. theta BSH [1]; 10-fold excess of compound 7,Cys2
same,shift in mass of BSH after treatment,"B. theta BSH [1]; 10-fold excess of compound 7, 2 h",388 Da
same,shift in the intact mass of the protein,B. theta BSH [1]; incubation of B. theta BSH with compound 7,388 mass units
same,% deconjugation of TCA,B. adolescentis,2.88% and 3.09% and 2.93%
same,% deconjugation of TDCA,B. adolescentis,10.43% and 6.05% and 7.35%
same,% deconjugation of TUDCA,B. adolescentis,1.54% and 1.26% and 1.21%
same,% deconjugation of TβMCA,B. adolescentis,0.34% and 0.37% and 0.73%
same,BSH activity in resuspended conventional mouse feces (in words),[2],completely inhibited BSH activity in feces
same,BSH activity in resuspended conventional mouse feces (in words),[2]; listed as compound 7,effectively inhibited BSH activity; also recorded: completely inhibited the BSH activity in feces; also recorded: almost completely inhibited BSH activity
same,"effect on bacterial cell viability (CFU/mL, plated at 21 h)",[3],not bactericidal; also recorded: did not significantly affect the cell viability of the majority of the tested strains
same,effect on bacterial growth (OD600 at 24 hours),[3],did not significantly impact the growth
same,effect on bacterial growth (OD600 at 24 hours),[3]; listed as compound 7,not bactericidal
same,% deconjugation of TβMCA,"B. theta BSH [4]; FIG. 2a, 2 hours, 100 μM inhibitor, 200 nM rBSH, bile acid pool, replicates 1-3",0.00%
same,% deconjugation of TβMCA,"B. theta BSH [4]; FIG. 2a, 21 hours, 100 μM inhibitor, 200 nM rBSH, bile acid pool, replicates 1-3",0.00%
same,% deconjugation of TCA,B. theta BSH [4]; [6],0.00%
same,% deconjugation of TβMCA,B. theta BSH [4]; [6],0.00%
same,inhibition at 100 µM,B. theta BSH [4]; read-out: inhibition of B. theta BSH activity for 21 hours,> 98%
same,epithelial monolayer integrity (passive diffusion of 4 kDa FITC-dextran),[5],did not compromise epithelial monolayer integrity
same,% deconjugation of TCA,B. vulgatus,0.68% and 0.64% and 0.47%
same,% deconjugation of TDCA,B. vulgatus,0.90% and 0.17% and 0.81%
same,% deconjugation of TUDCA,B. vulgatus,1.90% and 3.62% and 0.80%
same,% deconjugation of TβMCA,B. vulgatus,1.58% and 0.41% and 0.65%
same,% deconjugation of TCA,L. plantarum,0.77% and 0.93% and 1.02%
same,% deconjugation of TDCA,L. plantarum,3.22% and 0.62% and 0.64%
same,% deconjugation of TUDCA,L. plantarum,1.46% and 0.97% and 1.32%
same,% deconjugation of TβMCA,L. plantarum,0.15% and 0.49% and 0.62%
